Measured values: ChEMBL document CHEMBL5241058, “Pyrazole-based analogs as potential antibacterial agents against methicillin-resistance staphylococcus aureus (MRSA) and its SAR elucidation” (Eur J Med Chem, 2021)
≈ marks a conversion by molar mass, not a printed value.

How the values were obtained:
Format in all cases: functional
[1] = system: Staphylococcus aureus; assay: Antimicrobial activity against Methicillin-resistant Staphylococcus aureus assessed as bacterial growth inhibition
[2] = system: Staphylococcus aureus; assay: Antimicrobial activity against Methicillin-resistant Staphylococcus aureus CCARM 3506 assessed as bacterial growth inhibition incubated for 24 hrs by ELISA assay
[3] = system: Salmonella enterica subsp. enterica; assay: Antimicrobial activity against Salmonella typhimurium […] assessed as bacterial growth inhibition incubated for 18 hrs by microdilution method
[4] = system: Klebsiella pneumoniae; assay: Antimicrobial activity against Klebsiella pneumoniae ATCC 314588 assessed as bacterial growth inhibition incubated for 18 hrs by microdilution method
[5] = system: Pseudomonas aeruginosa; assay: Antimicrobial activity against Pseudomonas aeruginosa ATCC 27853 assessed as bacterial growth inhibition incubated for 18 hrs by microdilution method
[6] = system: Escherichia coli; assay: Antimicrobial activity against Escherichia coli ATCC 8739 assessed as bacterial growth inhibition incubated for 18 hrs by microdilution method
[7] = system: Staphylococcus aureus; assay: Antimicrobial activity against vancomycin intermediate-resistant Staphylococcus aureus assessed as bacterial growth inhibition incubated for 24 hrs by microdilution method
[8] = system: Staphylococcus aureus; assay: Antimicrobial activity against Methicillin-resistant Staphylococcus aureus ATCC 43300 assessed as bacterial growth inhibition incubated for 24 hrs by microdilution method; details: ATCC43300
[9] = system: Staphylococcus aureus; assay: Antimicrobial activity against Methicillin-resistant Staphylococcus aureus ATCC 33599 assessed as bacterial growth inhibition
[10] = system: Staphylococcus aureus; assay: Antimicrobial activity against Staphylococcus aureus MTCC 442 assessed as bacterial growth inhibition incubated for 24 to 48 hrs; details: time 24-48 hrs
[11] = system: Staphylococcus aureus; assay: Antimicrobial activity against Staphylococcus aureus MTCC 96 assessed as bacterial growth inhibition incubated for 24 to 48 hrs; details: time 24-48 hrs
[12] = system: Staphylococcus aureus; assay: Antimicrobial activity against Methicillin-resistant Staphylococcus aureus assessed as bacterial growth inhibition incubated for 24 to 48 hrs by microdilution method; details: time 24-48 hrs
[13] = system: Staphylococcus aureus; assay: Antibiofilm activity against Methicillin-resistant Staphylococcus aureus USA 300 relative to control
[14] = system: Staphylococcus aureus; assay: Antimicrobial activity against Methicillin-resistant Staphylococcus aureus ATCC 43300 assessed as bacterial growth inhibition by microdilution method

CCn1ncc2c3c(C#N)c4ccccc4nc3ccc21
MIC [1]: 3 µg/mL (≈ 11 µM)

Cc1ccc(Oc2c(C3N=C(N)NC(NCCc4ccccc4)=N3)c(C)nn2-c2ccc(Cl)cc2Cl)c(C)c1 (stereo not given)
MIC [2]: 0.5 µg/mL (≈ 0.889 µM)

COc1cccc(-c2nn(-c3ccccc3)cc2-c2nc3ccccn3c2Cc2ccccc2)c1OC
MIC [3]: < 1 µg/mL | MIC [4]: < 1 µg/mL | MIC [5]: < 1 µg/mL | MIC [6]: < 1 µg/mL

CCCCn1ncc2c3c(C#N)c4ccccc4nc3ccc21
MIC [1]: 2 µg/mL (≈ 6.66 µM)

O=C(c1cc(C(F)(F)F)n[nH]1)c1ccc(Cl)cc1O
MIC [7]: < 0.125 µg/mL

CCCn1ncc2c3c(C#N)c4ccccc4nc3ccc21
MIC [1]: 3 µg/mL (≈ 10.5 µM)

Cc1nn(-c2ccccc2)c2c1C(C(=O)O)CC=C(C(=O)O)N2 (stereo not given)
MIC [8]: > 500 µg/mL

Oc1ccccc1-c1nn(-c2ccccc2)cc1-c1nc2ccccn2c1Cc1ccccc1
MIC [3]: < 1 µg/mL | MIC [4]: < 1 µg/mL | MIC [5]: < 1 µg/mL | MIC [6]: < 1 µg/mL

Cc1ccc(O)c(C(=O)c2cc(C(F)(F)F)n[nH]2)c1
MIC [7]: < 0.125 µg/mL

O=C(O)c1ccc(-n2cc(/C=N/c3cccc(Cl)c3F)c(-c3ccc4ccccc4c3)n2)cc1
MBC [9]: 12.5 µg/mL (≈ 26.6 µM) | MIC [9]: 0.78 µg/mL (≈ 1.66 µM)

Cc1cc(O)c(C(=O)c2cc(C(F)(F)F)n[nH]2)cc1Cl
MIC [7]: < 0.125 µg/mL

Clc1ccc(-c2nn(-c3ccccc3)cc2-c2nc3ccccn3c2Cc2ccccc2)cc1
MIC [3]: < 1 µg/mL | MIC [4]: < 1 µg/mL | MIC [5]: < 1 µg/mL | MIC [6]: < 1 µg/mL

O=C(/C=C/c1ccc(F)cc1)N1N=C(c2ccncc2)OC1c1cn(-c2ccccc2)nc1-c1ccc(F)cc1 (stereo not given)
MIC [10]: 6.25 µg/mL (≈ 11.7 µM) | MIC [11]: 6.25 µg/mL (≈ 11.7 µM)

Cc1ccc(C(=O)Nc2c(C(N)=O)cnn2-c2ccc([N+](=O)[O-])cc2[N+](=O)[O-])cc1
MIC [12]: 42 µg/mL (≈ 102 µM)

O=C(/C=C/c1cccc(F)c1)N1N=C(c2ccncc2)OC1c1cn(-c2ccccc2)nc1-c1ccc(F)cc1 (stereo not given)
MIC [10]: 25 µg/mL (≈ 46.9 µM) | MIC [11]: 25 µg/mL (≈ 46.9 µM)

NC(=O)c1cnn(-c2ccc([N+](=O)[O-])cc2[N+](=O)[O-])c1NC(=O)c1ccc(Br)cc1
MIC [12]: 29.4 µg/mL (≈ 61.9 µM)

Cc1nn(-c2ccc(Cl)cc2Cl)c(Oc2ccc3ccccc3c2)c1C1N=C(N)NC(NCCc2ccccc2)=N1 (stereo not given)
MIC [2]: 0.5 µg/mL (≈ 0.855 µM)

Cc1nn(-c2ccc(Cl)cc2Cl)c(Oc2ccc(Br)cc2)c1C1N=C(N)NC(NCCc2ccccc2)=N1 (stereo not given)
MIC [2]: 0.5 µg/mL (≈ 0.815 µM)

O=C(c1cc(C(F)(F)F)n[nH]1)c1cc(Br)ccc1O
MIC [7]: < 0.125 µg/mL

O=C1CN(c2nnc(-c3cccc(Br)c3)s2)C(c2cn(-c3ccccc3)nc2-c2cccc([N+](=O)[O-])c2)S1 (stereo not given)
MBC [1]: 156 µg/mL (≈ 258 µM)

C/C(=N/NC(=N)N)c1cnn(-c2ccc(C#Cc3ccccc3)cc2)c1C
Activity [13]: 20%

Cc1nn(-c2ccc(C#N)cc2)c2c1C(C(=O)O)CC=C(C(=O)O)N2 (stereo not given)
MIC [8]: > 500 µg/mL

Cc1nn(-c2ccc(Cl)cc2)c2c1C(C(=O)O)CC=C(C(=O)O)N2 (stereo not given)
MIC [8]: > 500 µg/mL

CCCn1ncc2c3c(C#N)c4ccc(Br)cc4nc3ccc21
MIC [1]: 1 µg/mL (≈ 2.74 µM)

O=C1S/C(=C\c2cn(-c3ccccc3)nc2-c2cccc([N+](=O)[O-])c2)C(=O)N1CCCn1ccc2ccccc21
MIC [14]: 50 µg/mL

O=C(/C=C/c1ccc([N+](=O)[O-])cc1)N1N=C(c2ccncc2)OC1c1cn(-c2ccccc2)nc1-c1ccc(F)cc1 (stereo not given)
MIC [10]: 12.5 µg/mL (≈ 22.3 µM) | MIC [11]: 12.5 µg/mL (≈ 22.3 µM)

NC(=O)c1cnn(-c2ccc([N+](=O)[O-])cc2[N+](=O)[O-])c1NC(=O)c1ccccc1
MIC [12]: 75.3 µg/mL (≈ 190 µM)

NC(=O)c1cnn(-c2ccc([N+](=O)[O-])cc2[N+](=O)[O-])c1NC(=O)c1ccc([N+](=O)[O-])cc1
MIC [12]: 4 µg/mL (≈ 9.06 µM)

COc1cc(Cc2cnc(N)nc2N)cc(OC)c1OC [TRIMETHOPRIM]
MIC [2]: 4 µg/mL (≈ 13.8 µM)

Cc1nn(-c2ccc(Cl)cc2Cl)c(Oc2cccc(Br)c2)c1C1N=C(N)NC(NCCc2ccccc2)=N1 (stereo not given)
MIC [2]: 0.5 µg/mL (≈ 0.815 µM)

CC1=C(C(=O)O)N2C(=O)[C@@H](NC(=O)[C@H](N)c3ccccc3)[C@H]2SC1 [CEPHALEXIN ANHYDROUS]
MIC [12]: 72 µg/mL (≈ 207 µM)

Cc1nn(-c2ccccc2Cl)c2c1C(C(=O)O)CC=C(C(=O)O)N2 (stereo not given)
MIC [8]: > 500 µg/mL

Cn1ncc2c3c(C#N)c4ccccc4nc3ccc21
MIC [1]: 6 µg/mL (≈ 23.2 µM)

CC[C@H]1OC(=O)[C@H](C)[C@@H](O[C@H]2C[C@@](C)(OC)[C@@H](O)[C@H](C)O2)[C@H](C)[C@@H](O[C@@H]2O[C@H](C)C[C@H](N(C)C)[C@H]2O)[C@](C)(O)C[C@@H](C)C(=O)[C@H](C)[C@@H](O)[C@]1(C)O [ERYTHROMYCIN]
MIC [12]: 32 µg/mL (≈ 43.6 µM)

CCCC#Cc1ccc(-n2ncc(/C(C)=N\NC(=N)N)c2C)cc1
Activity [13]: 74%

C/C(=N/NC1=NCCN1)c1cnn(-c2ccc(C#CC(C)(C)C)cc2)c1C
Activity [13]: 62%

NC(=O)c1cnn(-c2ccc([N+](=O)[O-])cc2[N+](=O)[O-])c1NC(=O)c1cccc(Cl)c1
MIC [12]: 45.3 µg/mL (≈ 105 µM)

CC1(C)S[C@@H]2[C@H](NC(=O)Cc3ccccc3)C(=O)N2[C@H]1C(=O)O [PENICILLIN G]
MIC [1]: 0.06 µg/mL (≈ 0.179 µM)

CC1(C)S[C@@H]2[C@H](NC(=O)[C@H](N)c3ccccc3)C(=O)N2[C@H]1C(=O)O [AMPICILLIN]
MIC [1]: 62 µg/mL (≈ 177 µM)

Cc1nn(-c2ccc(Br)cc2)c2c1C(C(=O)O)CC=C(C(=O)O)N2 (stereo not given)
MIC [8]: > 500 µg/mL

Clc1ccccc1-c1nn(-c2ccccc2)cc1-c1nc2ccccn2c1Cc1ccccc1
MIC [3]: < 1 µg/mL | MIC [4]: < 1 µg/mL | MIC [5]: < 1 µg/mL | MIC [6]: < 1 µg/mL

Cc1onc(-c2ccccc2Cl)c1C(=O)N[C@@H]1C(=O)N2[C@@H]1SC(C)(C)[C@@H]2C(=O)O [CLOXACILLIN]
MIC [12]: 94 µg/mL (≈ 216 µM)

COc1ccc(C(=O)Nc2c(C(N)=O)cnn2-c2ccc([N+](=O)[O-])cc2[N+](=O)[O-])cc1
MIC [12]: 10 µg/mL (≈ 23.5 µM)

O=C(c1cc(C(F)(F)F)n[nH]1)c1cc(Cl)cc(Cl)c1O
MIC [7]: < 0.125 µg/mL

O=C1S/C(=C\c2cn(-c3ccccc3)nc2-c2ccc(Cl)cc2Cl)C(=O)N1CCCn1ccc2ccccc21
MIC [14]: 6.25 µg/mL

CC(C)Cn1ncc2c3c(C#N)c4ccc(Br)cc4nc3ccc21
MIC [1]: 6 µg/mL (≈ 15.8 µM)

Cc1nn(-c2ccc(Cl)cc2Cl)c(Oc2ccc(Cl)cc2)c1C1N=C(N)NC(NCCc2ccccc2)=N1 (stereo not given)
MIC [2]: 0.5 µg/mL (≈ 0.879 µM)

Cc1nn(-c2ccc(Cl)cc2Cl)c(Oc2cccc(Cl)c2)c1C1N=C(N)NC(NCCc2ccccc2)=N1 (stereo not given)
MIC [2]: 0.5 µg/mL (≈ 0.879 µM)

O=C(/C=C/c1cccc([N+](=O)[O-])c1)N1N=C(c2ccncc2)OC1c1cn(-c2ccccc2)nc1-c1ccc(F)cc1 (stereo not given)
MIC [10]: > 50 µg/mL | MIC [11]: > 50 µg/mL

O=C1S/C(=C\c2cn(-c3ccccc3)nc2-c2ccc(Cl)cc2)C(=O)N1CCCn1ccc2ccccc21
MIC [14]: > 50 µg/mL

CCn1ncc2c3c(C#N)c4ccc(Br)cc4nc3ccc21
MIC [1]: 2 µg/mL (≈ 5.69 µM)

O=C(O)c1ccc(-n2cc(/C=N/c3ccc(Cl)cc3Cl)c(-c3ccc4ccccc4c3)n2)cc1
MBC [9]: 6.25 µg/mL (≈ 12.9 µM) | MIC [9]: 0.78 µg/mL (≈ 1.6 µM)

O=C1CN(c2nnc(-c3cccc([N+](=O)[O-])c3)s2)C(c2cn(-c3ccccc3)nc2-c2cccc([N+](=O)[O-])c2)S1 (stereo not given)
MBC [1]: 312 µg/mL (≈ 547 µM)

O=C(N[C@H](CO)[C@H](O)c1ccc([N+](=O)[O-])cc1)C(Cl)Cl [CHLORAMPHENICOL]
MIC [10]: 50 µg/mL (≈ 155 µM) | MIC [11]: 50 µg/mL (≈ 155 µM) | MIC [14]: 50 µg/mL

O=C(c1cc(C(F)(F)F)n[nH]1)c1cc(Cl)ccc1O
MIC [7]: < 0.125 µg/mL

NC(=O)c1cnn(-c2ccc([N+](=O)[O-])cc2[N+](=O)[O-])c1NC(=O)c1ccc(Cl)cc1
MIC [12]: 39 µg/mL (≈ 90.5 µM)

CC(=O)Nc1c(C(N)=O)cnn1-c1ccc([N+](=O)[O-])cc1[N+](=O)[O-]
MIC [12]: 99.4 µg/mL (≈ 297 µM)

Cn1ncc2c3c(C#N)c4ccc(Br)cc4nc3ccc21
MIC [1]: 2 µg/mL (≈ 5.93 µM)

Cc1cc(NS(=O)(=O)c2ccc(N)cc2)no1 [SULFAMETHOXAZOLE]
MIC [1]: 16 µg/mL (≈ 63.2 µM)

O=C(c1cc(C(F)(F)F)n[nH]1)c1cccc(Br)c1O
MIC [7]: < 0.125 µg/mL

O=C1S/C(=C\c2cn(-c3ccccc3)nc2-c2ccc([N+](=O)[O-])cc2)C(=O)N1CCCn1ccc2ccccc21
MIC [14]: 12.5 µg/mL

Cc1nn(-c2ccc(Cl)cc2Cl)c(Oc2cccc(C(F)(F)F)c2)c1C1N=C(N)NC(NCCc2ccccc2)=N1 (stereo not given)
MIC [2]: 0.5 µg/mL (≈ 0.83 µM)

O=C(O)c1ccc(-n2cc(/C=N/c3ccc(C(F)(F)F)cc3)c(-c3ccc4ccccc4c3)n2)cc1
MBC [9]: 25 µg/mL (≈ 51.5 µM) | MIC [9]: 0.78 µg/mL (≈ 1.61 µM)

Cc1ccc(Oc2c(C3N=C(N)NC(NCCc4ccccc4)=N3)c(C)nn2-c2ccc(Cl)cc2Cl)cc1 (stereo not given)
MIC [2]: 0.5 µg/mL (≈ 0.912 µM)
